Results reported in patent US7416741B2, “Copper lowering treatment of inflammatory and fibrotic diseases” (The Regents of the University of Michigan, priority 2002, dated 2008).

System: carbon tetrachloride (CT) mouse model
Experiment: Serum ALT in the carbon tetrachloride (CT) mouse model of liver damage
Format: in vivo
Conditions: Ex 6; TM from week 5; sacrifice week 12; p<0.0008; protection only partial
Method: The carbon tetrachloride (CT) mouse model produces much more liver fibrosis (cirrhosis) than the Con A model. In this model carbon tetrachloride is injected intraperitoneally twice weekly, and after 12 weeks, a well-established cirrhosis should be present. This can be evaluated histologically, and can be quantitated by measuring liver hydroxyproline, a major amino acid in collagen. The TM was started in TM treated animals at the beginning of week 5 and the animals were sacrificed at week 12.
There were 4 animals in the CT group, 4 in the CT/TM group, 2 in the olive oil/TM group, and 1 in the TM group. Since there were so few animals in the last two groups, and since their data were generally similar, they were combined.

With [SH-].[SH-].[S]=[Mo]=[S] [TM, tetrathiomolybdate] the “serum ALT, CT/TM group mean vs CT group” value was “significantly lower”.
